Results taken from patent US12583868B2, “JAK inhibitors and methods for synthesizing and using thereof” (GALDERMA HOLDING SA, priority 2020, dated 2026).

Key:
[1] = target: T1, Tyk2 enzyme (Homo sapiens, UniProt P29597); test: In vitro enzyme assay (Cisbio kinase assay), Tyk2; format: biochemical; settings: ATP 300 μM; read-out: Enzymatic assay: Tyk2
T1 construct: purchased Life Technologies PR8440C

[2] = Protein binding analysis (RED), rat plasma; format: in vitro ADME, male Wistar Han rat; settings: 5 μM
Procedure: The protein binding was assessed in plasma of Human, male balb-c mice, male Wistar Han rat, male Göttingen minipig by rapid equilibrium dialysis (RED) devices. After the plasma and buffer phosphate 50 mM pH7.4 were equilibrated at 37° C., the compound was added to plasma to reach a final concentration of 5 μM. An aliquot of plasma was withdrawn immediately. Equilibration under mild agitation was continued for 4 h. The plasma and buffer were sampled and samples were quenched with 4 volumes of acetonitrile and centrifuged. Supernatant was quantified in HPLC/MS/MS to calculate the recovery and the percentage of compound dissolved in the buffer (unbound) and bound to plasma proteins.

[3] = Kinetic aq sol; format: physicochemical
[4] = Human skin ex vivo: flux through skin and dermis concentration (Franz cells); format: in vitro ADME; settings: PG/H2O cream 1 mg/mL, human skin
[5] = target: T2, CYP3A4 (Homo sapiens, UniProt P08684); test: CYP3A inhibition in human liver microsomes; format: in vitro ADME; settings: testosterone, CRL data, read-out: IC50 CYP3A4 testo.
T2 construct: Human pooled liver microsomes of mixed gender (mainly Caucasian); from tissue; host or cells: pooled human liver microsomes

[6] = Intrinsic clearance in hepatocytes, rat; format: in vitro ADME, male Wistar Han rats; settings: 2.5 μM
Procedure: (§1) The intrinsic clearance was assessed in cryopreserved Hepatocytes obtained by Human livers donors of mix gender pooled together, male balb-c mouse, male Wistar Han rats and male Göttingen minipig, by looking at the parent compound disappearance. The incubations were performed using a final concentration of viable cells of 1 million/ml (viability above 70%) and test item of 2.5 μM. Incubations were followed up to 2 h. Aliquotes were withdrawn at different time points and reaction quenched with acetonitrile. After centrifugation the supernatant was analyzed by HPLC/MS to quantify the remaining amount of parent in comparison with time 0. The clearance was calculated by fitting the log of the percentage remaining with Graphpad Prism ver.7.

[7] = Chrom logD pH 7.4; format: physicochemical
[8] = target: T3, Recombinant JAK1 (Homo sapiens, UniProt P23458); test: In vitro enzyme assay (Cisbio kinase assay), JAK1; format: biochemical; settings: ATP 300 μM; read-out: Enzymatic assay: IC50 JAK1
T3 construct: purchased Life Technologies PV4775

[9] = Intrinsic clearance in hepatocytes, mouse; format: in vitro ADME, male balb-c mouse; settings: 2.5 μM
Procedure: as §1

[10] = Systemic level in PD/IL6 mouse topical dose response; format: in vivo, BALB/c ByJ Rj mice; settings: topical 10 mM
Procedure: Skin samples were harvested 15 min.

[11] = target: T4, CYP2D6 (Homo sapiens, UniProt P10635); test: CYP2D6 inhibition in human liver microsomes; format: in vitro ADME; settings: dextromethorphan, CRL data
T4 construct: Human pooled liver microsomes of mixed gender (mainly Caucasian); from tissue; host or cells: pooled human liver microsomes
Procedure: After 5 min at 37° C. incubations were started with NADPH and prolonged for 10 min. The test compound was tested up to 30 μM keeping the final concentration of organic solvent was below 0.5%. The final concentration of microsomes was 0.1 mg/ml to ensure linearity during the time of the incubation. The reaction was quenched by adding 3 volume of acetonitrile. After centrifugation the supernatant was analyzed by HPLC/MS/MS for the formation of des-methyldextromethorphane selectively produced by CYP2D6 and 1′hydroxymidazolam or 6p-hydroxytestosterone, selectively produced by CYP3A. IC50 was calculated with Graphpad Prism v.7 comparing the amount of metabolite produced in presence of the test compound with that produced in absence of test item.

T2 sequence (P08684 2-503): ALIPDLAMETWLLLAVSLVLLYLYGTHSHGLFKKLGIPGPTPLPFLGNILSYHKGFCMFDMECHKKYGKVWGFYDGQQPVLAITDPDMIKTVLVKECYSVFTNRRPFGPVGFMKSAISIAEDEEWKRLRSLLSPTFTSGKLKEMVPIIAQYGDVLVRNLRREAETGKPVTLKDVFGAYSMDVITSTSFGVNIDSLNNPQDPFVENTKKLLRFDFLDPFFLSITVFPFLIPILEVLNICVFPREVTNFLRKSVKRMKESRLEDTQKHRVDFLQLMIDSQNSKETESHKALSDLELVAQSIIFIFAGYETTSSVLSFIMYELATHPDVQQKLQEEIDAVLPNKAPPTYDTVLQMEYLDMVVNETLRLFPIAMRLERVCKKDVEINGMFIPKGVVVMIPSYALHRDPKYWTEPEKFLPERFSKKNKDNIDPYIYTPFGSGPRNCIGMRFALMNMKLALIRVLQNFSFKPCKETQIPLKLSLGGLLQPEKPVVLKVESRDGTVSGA
T4 sequence (P10635 whole entry): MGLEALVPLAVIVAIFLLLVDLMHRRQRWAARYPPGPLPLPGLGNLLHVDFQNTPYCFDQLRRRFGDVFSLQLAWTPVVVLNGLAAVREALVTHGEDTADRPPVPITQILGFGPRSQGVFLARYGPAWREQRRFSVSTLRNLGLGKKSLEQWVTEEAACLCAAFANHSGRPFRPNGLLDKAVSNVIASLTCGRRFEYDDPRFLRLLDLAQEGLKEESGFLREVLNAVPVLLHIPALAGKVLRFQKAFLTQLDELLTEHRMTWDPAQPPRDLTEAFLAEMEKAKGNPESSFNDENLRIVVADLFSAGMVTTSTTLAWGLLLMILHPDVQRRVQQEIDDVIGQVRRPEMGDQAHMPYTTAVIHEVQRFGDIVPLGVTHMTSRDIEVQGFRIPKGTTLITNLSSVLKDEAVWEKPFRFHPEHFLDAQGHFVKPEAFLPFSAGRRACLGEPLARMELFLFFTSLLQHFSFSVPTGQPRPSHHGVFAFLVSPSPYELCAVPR
T1 sequence (P29597 whole entry): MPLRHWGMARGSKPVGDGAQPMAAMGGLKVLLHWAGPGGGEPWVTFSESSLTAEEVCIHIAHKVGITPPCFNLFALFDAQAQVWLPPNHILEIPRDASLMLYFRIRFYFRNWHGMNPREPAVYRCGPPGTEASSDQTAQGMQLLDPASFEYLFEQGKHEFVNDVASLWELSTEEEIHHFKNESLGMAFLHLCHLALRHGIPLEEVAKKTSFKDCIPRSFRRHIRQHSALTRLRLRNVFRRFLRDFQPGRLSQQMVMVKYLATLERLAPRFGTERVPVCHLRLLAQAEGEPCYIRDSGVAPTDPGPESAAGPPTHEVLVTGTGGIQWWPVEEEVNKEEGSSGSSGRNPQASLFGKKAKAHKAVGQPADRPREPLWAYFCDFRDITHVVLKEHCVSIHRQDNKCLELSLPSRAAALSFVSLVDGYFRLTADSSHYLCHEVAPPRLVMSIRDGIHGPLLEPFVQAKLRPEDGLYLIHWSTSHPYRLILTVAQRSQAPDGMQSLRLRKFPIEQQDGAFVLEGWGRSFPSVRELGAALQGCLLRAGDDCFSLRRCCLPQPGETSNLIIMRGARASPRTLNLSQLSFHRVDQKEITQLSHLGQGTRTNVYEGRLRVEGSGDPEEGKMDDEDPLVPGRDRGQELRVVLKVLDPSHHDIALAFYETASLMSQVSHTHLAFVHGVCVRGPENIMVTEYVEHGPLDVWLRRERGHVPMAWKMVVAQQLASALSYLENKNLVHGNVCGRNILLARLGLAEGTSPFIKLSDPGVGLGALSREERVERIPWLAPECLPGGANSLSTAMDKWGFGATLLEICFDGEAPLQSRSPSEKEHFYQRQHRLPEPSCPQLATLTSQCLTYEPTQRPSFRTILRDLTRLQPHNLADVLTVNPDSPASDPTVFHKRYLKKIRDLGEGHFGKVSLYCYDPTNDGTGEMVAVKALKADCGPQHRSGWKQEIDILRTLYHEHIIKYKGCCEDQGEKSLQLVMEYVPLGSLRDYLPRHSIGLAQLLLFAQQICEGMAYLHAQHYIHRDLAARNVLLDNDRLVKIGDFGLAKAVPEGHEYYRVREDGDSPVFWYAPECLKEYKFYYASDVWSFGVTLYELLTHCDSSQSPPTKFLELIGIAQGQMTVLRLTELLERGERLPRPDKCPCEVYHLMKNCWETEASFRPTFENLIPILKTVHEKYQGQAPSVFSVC
T3 sequence (P23458 whole entry): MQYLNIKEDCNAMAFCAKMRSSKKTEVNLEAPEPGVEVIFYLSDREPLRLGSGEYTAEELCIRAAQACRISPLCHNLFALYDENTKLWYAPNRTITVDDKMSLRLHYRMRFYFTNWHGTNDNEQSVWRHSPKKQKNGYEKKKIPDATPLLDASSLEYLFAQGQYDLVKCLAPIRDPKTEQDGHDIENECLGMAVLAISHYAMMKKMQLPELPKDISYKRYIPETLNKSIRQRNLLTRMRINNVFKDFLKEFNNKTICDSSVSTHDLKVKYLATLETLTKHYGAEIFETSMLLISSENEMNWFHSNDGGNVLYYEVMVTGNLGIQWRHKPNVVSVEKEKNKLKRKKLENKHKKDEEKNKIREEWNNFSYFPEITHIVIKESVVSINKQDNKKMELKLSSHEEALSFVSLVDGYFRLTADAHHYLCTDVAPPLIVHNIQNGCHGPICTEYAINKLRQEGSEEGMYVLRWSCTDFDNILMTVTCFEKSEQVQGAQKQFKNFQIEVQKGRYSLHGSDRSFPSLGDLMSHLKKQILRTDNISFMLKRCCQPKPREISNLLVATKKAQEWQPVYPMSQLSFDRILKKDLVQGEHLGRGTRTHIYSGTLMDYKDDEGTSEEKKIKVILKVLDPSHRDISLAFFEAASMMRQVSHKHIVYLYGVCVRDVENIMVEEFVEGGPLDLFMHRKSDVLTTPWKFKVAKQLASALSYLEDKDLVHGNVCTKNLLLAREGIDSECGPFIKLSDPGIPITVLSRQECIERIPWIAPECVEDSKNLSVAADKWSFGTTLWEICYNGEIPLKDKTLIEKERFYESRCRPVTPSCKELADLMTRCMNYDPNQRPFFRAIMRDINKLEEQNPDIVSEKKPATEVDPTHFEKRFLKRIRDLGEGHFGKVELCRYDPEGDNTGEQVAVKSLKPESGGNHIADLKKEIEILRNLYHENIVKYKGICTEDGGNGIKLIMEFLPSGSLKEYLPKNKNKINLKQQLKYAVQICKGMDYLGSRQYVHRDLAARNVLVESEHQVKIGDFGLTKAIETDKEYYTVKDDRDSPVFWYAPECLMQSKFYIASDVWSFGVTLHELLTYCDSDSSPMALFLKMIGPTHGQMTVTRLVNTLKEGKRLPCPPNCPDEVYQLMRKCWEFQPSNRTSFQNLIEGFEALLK

## O=S(=O)(N[C@H]1C[C@@H](N2CCOc3cnc4[nH]ccc4c32)C1)C1CN(C2CC2)C1 [Compound E, 1-Cyclopropyl-N-((cis)-3-(2,3-dihydropyrrolo[3′,2′:5,6]pyrido[3,4-b][1,4]oxazin-1(7H)-yl)cyclobutyl)azetidine-3-sulfonamide]
[1]
  IC50: 3.45 µM
[2]
  rFU: 16%
[3]
  Kinetic aq sol: 225/ND/TBD microM
[4]
  dermis concentration: 2.2 µM
  measured flux 6-24 hr: < 0.24 ng/cm^2/hr
[5]
  IC50: 5 µM
[6]
  Intr. Clear. rheps: 40 microL/min/10 6 cells
[7]
  chromatographic logD: 0.8
[8]
  IC50: 0.009 µM
[9]
  Intr. Clear. mheps: 28 microL/min/10 6 cells
[10]
  PD/IL6 mouse top DR 0.01-10 mM (PG/Acetone/Transcutol): Systemic level @10 mM - 2 hrs: 185 nM
[11]
  IC50: 20 µM
